In PMC9862037, “Interactions of Mycotoxin Alternariol with Cytochrome P450 Enzymes and OATP Transporters” (Metabolites, 2022):

Target: T1, CYP1A2 (Homo sapiens, UniProt P05177)
T1 construct: purchased Abcam ab211075
Assay: biochemical
Procedure: CYP1A2 Inhibitor Assay Kit (Abcam; Cambridge, UK) was applied following the manufacturer’s description, where the inhibitory action of 0.000, 0.001, 0.010, 0.050, 0.10, 0.20, 0.50, 1.25, 3.0, 10, and 25 μM AOH concentrations were tested.
IC50 values were calculated by sigmoidal fitting (Hill1), using the Origin (version 2018, OriginLab Corporation, Northampton, MA, USA) software.

T1 sequence (P05177 whole entry): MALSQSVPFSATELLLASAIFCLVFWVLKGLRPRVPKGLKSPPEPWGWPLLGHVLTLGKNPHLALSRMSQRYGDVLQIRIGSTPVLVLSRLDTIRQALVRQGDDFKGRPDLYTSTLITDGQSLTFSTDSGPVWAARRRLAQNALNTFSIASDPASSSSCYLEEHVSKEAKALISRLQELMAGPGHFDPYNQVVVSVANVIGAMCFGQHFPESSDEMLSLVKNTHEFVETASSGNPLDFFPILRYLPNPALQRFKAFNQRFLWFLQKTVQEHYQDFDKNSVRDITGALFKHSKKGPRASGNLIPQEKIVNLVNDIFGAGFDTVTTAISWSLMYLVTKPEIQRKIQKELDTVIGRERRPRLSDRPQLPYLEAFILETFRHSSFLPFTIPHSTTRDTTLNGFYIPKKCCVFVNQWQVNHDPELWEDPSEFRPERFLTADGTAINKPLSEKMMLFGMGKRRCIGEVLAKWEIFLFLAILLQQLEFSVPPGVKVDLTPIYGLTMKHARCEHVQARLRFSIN

Cc1cc(O)cc2oc(=O)c3c(O)cc(O)cc3c12 [AOH, Alternariol]
CYP1A2 inhibition at 0.05 μM (0.05 μM AOH, p < 0.01): statistically significant | CYP1A2 inhibition at 10 μM (10 μM AOH): close to complete | IC50 (fluorometric kit, AOH 0-25 μM, read-out: IC50, CYP1A2 inhibition): 150 nM
